Results from patent US20250042968A1, “EPHRIN LIGAND MIMETIC PEPTIDES FOR THE TREATMENT OF NEURODEGENERATIVE DISEASES” (University of Miami, priority 2022, published 2025).

Experiments:
Type in all cases: cell-based
[1] = system: human fetal brain-derived neural stem cells (hNSC); assay: hNSC growth on ephrin-ligand repulsive substrates; details: 500 nM, 5-day culture, over control cultures
Protocol: Fetal brain-derived neural stem cells (hNSC): In order to evaluate the effect of xEFN peptides on human neuronal cells, StemPro hNSC were purchased from ThermoFisher Scientific (Cat. no. A15654) and cultured according to the manufacturer's recommended protocol. Briefly, cells were grown in non-adherent neurosphere suspension cultures in StemPro NSC serum-free media (NSC-SFM) (Cat. no. A10509-01) supplemented with 2 mM GlutaMAX-I supplement, 6 U/mL heparin, and 200 μM ascorbic acid (Sigma-Aldrich, Cat. no. A8960). Culture media was changed every 2 days and cells were passaged every 7 days as undifferentiated hNSC. To induce differentiation into neuronal cells, hNSC neurospheres were dissociated into single-cell suspensions using StemPro Accutase for 5 minutes at 37° C. followed by mechanical pipetting. hNSC were then plated onto Geltrex-coated culture vessels at a concentration of 2×10^4 cells/cm^2 in neuronal differentiation media consisting of NSC media without bFGF or EGF and supplemented with B-27 supplement (ThermoFisher Scientific) for 3 days prior to performing further in vitro assays.
Glial-bound efn ligands have been associated with mediating the major repulsive milieu for neuronal process in the CNS. […] Moreover, assays on the repulsive nature of efn ligand-presenting surfaces have been a mainstay in axonal guidance studies for many decade. The use of xEFN peptides to antagonize this repulsive signaling from efn ligand substrates was evaluated on human fetal brain-derived neural stem cells (hNSC).
Recombinant Efn ligands (A2, A4, and B3) containing a His-Tag were purchased from R&D Systems, and were pre-clustered using an anti-His antibody (Genetex) for 30 min. The pre-clustered Efn ligands, or anti-his antibody alone, (control) were then mixed with laminin from human placenta (Sigma-Aldrich) in suspension and used to coat the growth surface of a 24-well plate. […] The entire wells were then scanned using an EVOS FL Auto fluorescent microscope and the images were analyzed in the ImageJ software to calculate cell coverage area.

mouse RGC growth cones = assay: RGC growth cone collapse analysis; details: 500 nM, 4 days, mouse RGC cultures
Protocol: One of the first signs of neuronal dysfunction is axonal growth cone collapse, and it is one of the mechanisms through which Eph-receptors exert their repulsive stimuli for axonal guidance. […] At the 48 h time point, cells were stimulated by the addition of 2 μg of pre-clustered recombinant mouse EfnA5-His (R&D Systems) for 1 hour. Following this stimulation, cells were fixed in 4% paraformaldehyde for 5 minutes, permeabilized with 0.05% Triton X-100, and blocked with 5% FBS for 1 h. Cells were then incubated in primary antibody against TUBB3 overnight at 4° C., washed, and incubated in AlexaFluor 488-conjugated secondary for 2 h at room temperature. After washing, cell cytoskeleton was counterstained with AlexaFluor 594-conjugated phalloidin for 30 min at 37° C. (ThermoFisher) and mounted with SlowFade Gold Anti-fade media with DAPI. Cells were then imaged using an EVOS FL Auto fluorescent microscope. Images were analyzed in ImageJ by a blinded investigator and a growth cone collapse was calculated manually.

isolated mouse RGCs [2] = assay: Neurite sprouting and extension assay, short-term (48 h)
Protocol: (§1) Mouse retinal ganglion cells (RGC): Mouse R GCs were isolated as follows. Briefly, retinas from postnatal day 8-10 (p8-10) mouse pups were dissected and digested using a papain solution (16.5 U/mL) for 30 minutes at 37° C. Following dissociation, macrophage and endothelial cells were removed from the cell suspension by panning with the anti-macrophage antiserum (Accurate Chemical, Westbury, NY). Finally, RGCs were immunopanned in plates containing the antibody against Thy1.2 and were then released by incubation with trypsin solution. RGCs were grown on poly-L-lysine coated plates in serum-free Neurobasal media (Invitrogen, Carlsbad, CA), supplemented with B-27 supplement, CNTF (10 ng/ml), and BDNF (10 ng/ml).
(§2) mRGCs were used to analyze dendrite sprouting, axonal polarization and extension, and ephrin receptor phosphorylation following treatment with xEFN peptides. RGCs were isolated as described above and plated onto 24 well plates at a concentration of 4×10^4 cells/well for short-term (48 h) experiments, or into 96-well plates at a concentration of 1,000 cells/well for long-term (6 days) experiments in an Incucyte Zoom (Essen Biosciences) instrument for live cell imaging. […] For the short-tem experiment, cells were fixed in 4% paraformaldehyde for 5 minutes, permeabilized using 0.05% Triton X-100, blocked with 5% fetal bovine serum, and incubated with primary antibody against Tubulin Beta 3 Class III (TUBB3) overnight at 4° C. Cells were then washed 3×5 min with PBS and incubated with AlexaFluor488 secondary antibody for 2 h at room temperature. Cells were mounted using SlowFade Gold Antifade mounting media with DAPI (ThermoFisher) and imaged using an EVOS FL automated fluorescent microscope (ThermoFisher). Dendrite measurements and analysis was performed by a blinded investigator using ImageJ software and the Sholl analysis plugin. […] Neurite sprouting and extension were quantified using the automated Incucyte Zoom NeuroTrack Processing algorithm for real-time, label-free neurite segmentation and quantitation (FIG. 13).

isolated mouse RGCs [3] = assay: Neurite outgrowth, long-term (6 days), Incucyte Zoom live cell imaging
Protocol: as §1, with “Briefly, retinas from postnatal day 8-10 (p8-10) mouse pups were dissected and digested using a papain solution (16.5 U/mL) for 30 minutes at 37° C.” left out
as §2

EphA2 = target: T1, EphA2 (Mus musculus, UniProt Q03145); assay: Immunohistochemistry of TUBB3 and pEphA2 receptor in RGCs; details: 500 nM, 4 days
T1 construct: endogenous in cells; host or cells: primary mouse retinal ganglion cells (p8-10 pups)
T1 sequence (Q03145 26-977): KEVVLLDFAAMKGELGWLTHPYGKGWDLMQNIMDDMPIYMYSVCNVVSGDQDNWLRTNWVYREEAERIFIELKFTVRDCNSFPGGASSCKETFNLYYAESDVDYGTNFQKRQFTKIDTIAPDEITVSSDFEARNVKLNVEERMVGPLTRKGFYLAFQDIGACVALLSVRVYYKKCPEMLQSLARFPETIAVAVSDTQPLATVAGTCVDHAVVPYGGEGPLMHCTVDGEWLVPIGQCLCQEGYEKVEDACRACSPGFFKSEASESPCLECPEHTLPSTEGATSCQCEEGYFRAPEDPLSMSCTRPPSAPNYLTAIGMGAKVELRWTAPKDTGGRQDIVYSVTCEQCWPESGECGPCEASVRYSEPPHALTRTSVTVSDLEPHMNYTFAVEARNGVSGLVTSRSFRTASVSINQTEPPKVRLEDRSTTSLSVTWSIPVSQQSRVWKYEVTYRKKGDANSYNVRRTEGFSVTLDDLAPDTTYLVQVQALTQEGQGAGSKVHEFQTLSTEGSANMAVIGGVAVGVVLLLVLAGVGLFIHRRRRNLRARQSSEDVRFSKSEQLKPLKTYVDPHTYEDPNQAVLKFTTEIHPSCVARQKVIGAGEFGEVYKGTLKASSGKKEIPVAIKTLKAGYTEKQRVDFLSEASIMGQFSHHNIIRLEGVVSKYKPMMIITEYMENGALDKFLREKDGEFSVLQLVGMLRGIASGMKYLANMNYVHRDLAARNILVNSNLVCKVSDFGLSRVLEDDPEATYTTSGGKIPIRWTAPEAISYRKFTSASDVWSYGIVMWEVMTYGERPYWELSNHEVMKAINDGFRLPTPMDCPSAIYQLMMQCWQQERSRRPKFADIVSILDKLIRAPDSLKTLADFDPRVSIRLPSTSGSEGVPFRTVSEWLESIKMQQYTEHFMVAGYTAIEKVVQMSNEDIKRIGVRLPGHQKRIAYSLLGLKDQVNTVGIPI

[4] = supplemented RGC cultures, 48 h

FTIKFQEFSPNLWGL [xEFN_RBD3] was tested, and the “confluence coverage on efnA2 substrate” value [1] was 120.62+/−10.89%, the “confluence coverage on efnA4 substrate” value [1] was 125.83+/−2.92% and the “confluence coverage on efnB3 substrate” value [1] was 96.51+/−7.15%. The “number of collapsed growth cones” value (mouse RGC growth cones) was “significant decrease”, the average axonal length (isolated mouse RGCs [2]; 500 nM, 48 h of culture, compared to vehicle (PBS) treated controls) was 302.16+/−40.24% and the axonal extension (isolated mouse RGCs [2]; isolated RGCs) was “significantly increases”. For the same sequence, the dendritic arbor complexity (isolated mouse RGCs [2]; isolated RGCs) was “significantly increases”, the neurite sprouting (isolated mouse RGCs [2]; isolated RGCs) was “significantly increases” and the “average neurites/RGC soma” value (isolated mouse RGCs [2]; [4]) was 3.43+/−0.16 neurites/RGC. For the same sequence, the “median total neurite length” value (isolated mouse RGCs [2]; [4]) was 1034.68 (range: 486.26-2759.84) μm/cell, the “neurite outgrowth compared to 1 μM xEFN_F1 peptide” value (isolated mouse RGCs [3]; 1 μM, 6-day period) was “significantly increased” and the “neurite length over control cultures” value (isolated mouse RGCs [3]; 1 μM, after 32 hours of culture) was “statistically-significant increase”. The “increase in overall neurite length over day 0 measurement” value (isolated mouse RGCs [3]; 1 μM, end of 6-day period) was 424.68+/−4.47%, the “neurite outgrowth compared to EphB2- or EphB4-restricted targeting peptides SNEW and TYFD” value (isolated mouse RGCs [3]; equal concentrations) was “statistically significant increase” and the “dendritic density (immunohistochemistry)” value (EphA2) was “increase dendritic density”. For the same sequence, the “phosphorylation of the EphA2 receptor (immunohistochemistry)” value (EphA2) was “reduced phosphorylation”.
